Test results reported in a melting point compilation (Tetko et al.; mined from patent text by program, amines drawn as free bases though some values may be those of a salt).

| SMILES | melting point [°C] |
| --- | --- |
| CCCc1[nH]c2ccc(OCc3ccc4ccccc4n3)cc2c1CC | 91 |
| Nc1cc(Oc2ccc(C(F)(F)F)cc2Cl)ccc1[N+](=O)[O-] | 86 to 92 |
| Nc1cc(Cl)ccc1C(=O)c1cccc(O)c1 | 137 to 138 |
| CC1(c2ccc(Cl)cc2)Cc2cc(O)c(Cl)c(Cl)c2C1=O (stereo unspecified) | 211 to 213 |
| Cc1cccc2c3c(n(Cc4ccc(F)cc4)c12)CCCC3=O | 154 to 155 |
| CCCCc1nc2cccc(COC)c2n1Cc1ccc(-c2ccccc2CO)cc1 | 126 to 127 |
| COc1ccc(C(=CN2CCNC2=O)c2ccccc2)cc1OC | 155 |
| CCCC(=O)C1=C(O)CC2(CCC(C)CC2)OC1=O (stereo unspecified) | 60 to 63 |
| N#Cc1cc(Cl)[nH]c1-c1oc2ccccc2c1Cl | 224 to 226 |
| CC1(C)Cc2c(sc(N)c2C(N)=O)C(C)(C)C1 | 140 to 145 |
| Cc1ccccc1-c1cc(=O)c2ccccc2o1 | 45.5 to 47.5 |
| O=C(O)CCc1ccc(OCc2ccccc2)cc1 | 123 to 124 |
| COc1ccc(-c2cnn3c(N)c(-c4ccc(F)c(Cl)c4)c(C)nc23)cc1OC | 235 to 238 |
| CC(C)OCC1(C(F)(F)F)c2cc(C#N)ccc2Nc2ncc(Br)cc21 (stereo unspecified) | 76 to 77 |
| Cc1ccccc1-n1nc(-c2cccc(C(=O)O)c2)[nH]c1=O | > 310 |
| Cc1cc(C(=O)N2Cc3cccn3Cc3ccccc32)ccc1C1=CCCCC1C (stereo unspecified) | 132 to 133 |
| FC(F)(F)CN1CCC(n2ccc3ccccc32)CC1 | 79 to 81 |
| N#CCc1cc2cc(Br)ccc2s1 | 94 to 96 |
| COc1ccc2[nH]c(C3CCC(c4ccccc4)(N(C)C)CC3)c(C)c2c1 (stereo unspecified) | 156 to 163 |
| O=C(O)c1cn(C2CC2)c2c(F)c(N3CCNCC3)c(F)c(F)c2c1=O | 208 to 213 |
| COc1cc(N)c(Cl)cc1C(=O)NCC1CCN(CCCCCCOCc2ccccc2)CC1 | 91 to 95 |
| CCCCc1nc(C(F)(F)F)c(C(=O)OCC)[nH]1 | 51 to 53 |

| SMILES | melting point [°C] |
| --- | --- |
| CC(C)[C@H]1OC[C@H](Nc2nnc(Cc3ccc(O)nc3)c3ccccc23)CO1 | 108 to 109 |
| CC#CCOc1cc(/C=C/C(=O)Nc2ccccc2C(=O)O)ccc1OC | 170 to 171 |
| COc1ccc(Sc2ccccc2CCl)cc1 | 76 to 78 |
| CCCCCCCCCCCCc1ccc(NC)c([N+](=O)[O-])c1 | 54 |
| CN1C(=O)[C@H](NC(=O)CCC2CCCCC2)N=C(c2ccccc2)c2ccccc21 | 144 to 146 |
| CC(C)C[C@@H](C#N)NC(=O)[C@@H]1CCCC[C@@H]1NC(=O)c1ccc2ncsc2c1 | 200 to 201 |
| CC(=O)c1ccc(OCCC2CCN(c3cc(Cl)nnc3Cl)CC2)cc1 | 99 to 100 |
| CCOC(=O)Nc1ccc(OCc2nc3ccccc3s2)cc1 | 149 to 150 |
| CC(C)c1c(I)sc2ncc(C#N)c(Cl)c12 | 177 to 179 |
| CC1=NN(c2cc(Cl)c(C(=O)c3ccc(Cl)cc3)c(Cl)c2)C(=O)NC1 | 257 to 259 |
| CN=C(SCc1ccc(OC)cc1)C1(c2cccnc2)CCCCC1CCO (stereo unspecified) | 145 to 146 |
| CCCCCCCCCCC(C)(C)NC(=O)Nc1cc(OC)cc(C(C)(C)C)c1O | 99 to 102 |
| O=C(O)[C@@H](Cc1ccccc1)Oc1c(Br)cc(-c2c3ccccc3c(Br)c3sc4ccccc4c23)cc1Br | 140 to 142 |
| Cc1nc2c(N)nc3ccccc3c2n1CCCCCNC(=O)c1ccccc1 | 110 to 120 |
| NC(=O)c1ccc(NC2CCCN(Cc3ccccc3)CC2)c(Cl)c1 (stereo unspecified) | 174 to 175 |
| CC(=O)C1=C(O)C(=C(C)Nc2ccc(O)cc2)C(=O)OC1=O | 223 to 225 |
| CCC(O)c1ccc(Cc2c(Cl)cc(N3N=CCNC3=O)cc2Cl)cc1 (stereo unspecified) | 148 to 149 |
| Oc1cccc2c1CC=CC2 | 70.5 to 72 |
| CC(=O)NC[C@H]1CN(c2ccc(N3CCN(C(=O)OC(C)(C)C)CC3)c(F)c2)C(=O)O1 | 153 to 159 |
| Nc1ccc(C(F)(F)F)cc1S(N)(=O)=O | 142 to 143 |
| COc1cc(Nc2nccc(-c3ccc(NC4CCN(Cc5ccccc5)CC4)nc3)n2)cc(OC)c1OC | 113 to 114 |
| COc1ccc2c(-c3ccc(OC(C)=O)cc3)c(-c3ccc(C(F)(F)F)cc3)c(=O)oc2c1 | 198 to 201 |

| SMILES | melting point [°C] |
| --- | --- |
| COC(=O)Cc1ccccc1NC(=S)N(C)C | 110 to 113 |
| COc1ccc(O)c(C2(CO)C(=O)N(Cc3ccc(C(F)(F)F)o3)c3ccc(F)cc32)n1 (stereo unspecified) | 110 to 113 |
| CCOC(=O)C(C#N)=Cc1c(Cl)n(Cc2ccccc2)c2ccccc12 | 130 to 131 |
| O=S(CSc1ccc(Cl)cc1)c1ccccc1 (stereo unspecified) | 70 to 71 |
| COc1nc(-c2ccccc2)n(Cc2ccc(-c3ccccc3S(N)(=O)=O)cc2)c1C=O | 188 |
| CCNc1nc(Nc2ccccc2)ncc1C=CC#N | 244 to 246 |
| COC1CC2CCC1C2Nc1ccc([N+](=O)[O-])c2onnc12 (stereo unspecified) | 178 to 180 |
| CCN(CC)CC1CCn2c(nc3ccccc32)S1 (stereo unspecified) | 93 to 94 |
| CC(C)(C(=O)O)C1CCN(Cc2ccccc2)CC1 | 195 |
| CC(NC(=O)Cc1cc(F)cc(F)c1)C(=O)NC1(F)NC(=O)Cc2ccccc21 (stereo unspecified) | 195 to 200 |
| Cc1ccccc1NC1=CCC(C)n2c1ncc(C(=O)O)c2=O (stereo unspecified) | 157 to 159 |
| CNC(=O)c1ccc(F)c2c1CC(N(CCc1c[nH]c3ccc(F)cc13)C1CCC1)CO2 (stereo unspecified) | 131 |
| CCOC(=O)C1CCCN(S(=O)(=O)c2ccc3[nH]c(=O)c4cccc5c4c3c2C5)C1 (stereo unspecified) | 215 to 218 |
| Cc1nnc2n1-c1sccc1C(c1ccccc1)=NC2 | 224 to 226 |
| Cc1nc(-n2ccc(Oc3ccccc3)cc2=O)sc1C(=O)NCc1ccccc1 | 67 to 70 |
| COC(=O)c1nc(Cl)c(F)c(N)c1Br | 138 to 139 |
| CC(C)(c1ccc(OS(=O)(=O)c2ccccc2)cc1)c1ccc(OS(=O)(=O)c2ccccc2)cc1 | 92 to 93 |
| COc1c(C2CC2c2ccc(NS(C)(=O)=O)cc2)cc(N2CCC(=O)NC2=O)cc1C(C)(C)C (stereo unspecified) | 265 to 266 |
| Cc1c(C)c2c(c(C3CC(=O)C=C(O)C3)c1C)OCC2 (stereo unspecified) | 264 |
| CC(C)(C)c1ccc(C(=O)n2c3cc(O)c(O)cc3c3c(Br)cc(O)c(O)c32)cc1 | > 280 |
| CCOC(=O)c1c(N2CCCC2)c2cnc(-c3ccccc3)nc2n(CC)c1=O | 149 to 153 |

Now from value to compound:

| melting point [°C] | SMILES |
| --- | --- |
| 72 to 95 | C=CCc1c(O)cc(O)c(C)c1C(=O)OC |
| 130 to 135 | COc1cc(Nc2c(C#N)cnc3cc(-c4ccc(CNCCc5ccccn5)o4)ccc23)c(Cl)cc1Cl |
| 151 | CC1(c2ccccc2NC(c2c(Cl)cccc2Cl)C2CC2)OCCO1 (stereo unspecified) |
| 81.6 to 82.4 | C[C@H]1CCCC(C)(C)[C@@H]1C(=O)c1ccc(C#N)c(C(F)(F)F)c1 |
| 111 to 113 | CCCCCCCCCCCCc1ccc(C#Cc2c3ccccc3c(C#Cc3ccc(CCCCCCCCCCCC)cc3)c3ccccc23)cc1 |
| 204 to 205 | CNc1nc(N)nc(OCC(F)(F)F)n1 |
| 156 to 157 | COc1cc2nc(-c3ccccc3)nc(N3CCN(C(=O)Nc4ccc([N+](=O)[O-])cc4)CC3)c2cc1OC |
| 114 to 115 | O=C(O)[C@H](Cc1cccc(OCC(F)(F)C(F)F)c1)[C@@H](O)c1ccc(F)cc1 (racemic) |
| 134 | O=S(=O)(N[C@H]1CC[C@H](CCN2CCC(c3cccc4c3CCO4)CC2)CC1)c1ccc(F)cc1 |
| 155 to 158 | CC(C)CCCC(C)C1CCC2C3=CC=C4CC(O)CC(O)C4(C)C3CCC21C (stereo unspecified) |
| 45 to 45.5 | CCCCCCCCCCCOC(=O)NCCC |
| 108 to 110 | CS(=O)(=O)Cc1cc(C(=O)C=O)ccc1OCc1ccccc1 |
| 80 | COc1ccc2c(c1)C(=O)CC21CCCC1 |
| 79 | COC(=O)c1ccc(OCCNC(=O)C2Cc3ccccc3N2S(=O)(=O)c2ccc(-c3cc(C(F)(F)F)ccc3Cl)cc2)cc1C(F)(F)F (stereo unspecified) |
| 77 to 79 | CCOC(=O)c1c(OCC)c2ccc(C)nc2n(CC)c1=O |
| 145 to 147 | O=C(O)Cc1cccc2c(=O)cc(-c3ccc(F)c(F)c3)oc12 |
| 72.5 to 74 | CCOCN1C(C)=C(C(=O)OC)C(c2cccc([N+](=O)[O-])c2)C(C(=O)OCCBr)=C1C (stereo unspecified) |
| 187 to 188 | O=C1Nc2cccnc2Nc2ccc(Br)cc21 |

| melting point [°C] | SMILES |
| --- | --- |
| 185 to 189 | O=C(O)CCC12CC(c3ccccc31)c1ccccc12 |
| > 350 | O=c1[nH]c2cc(Cl)ccc2c(O)c1-c1cccc2ccccc12 |
| 162 to 164 | CCOC(=O)c1ccc(N2CCN(c3ccncc3)CC2)cc1 |
| 172 to 175 | NCCCNC(=O)CCn1cnc2c(=O)[nH]cnc21 |
| 93 to 94 | CCCc1ccc(S(=O)(=O)Nc2ccc(OC)nc2)cc1 |
| 181 to 183 | OC(CCl)COc1cccc(-c2nc(C(F)(F)F)c[nH]2)c1 (stereo unspecified) |
| 237 to 239 | Cc1c(F)c(Br)cc2c1c(=O)c(C(=O)O)cn2C1CC1 |
| 91 to 92 | O=C(NC1CCOC(O)C1)c1ccc2nonc2c1 (stereo unspecified) |
| 114 to 115 | CC(C)OC1(c2ccc(Cl)cc2)OC(c2ccncc2)=Nc2ccccc21 (stereo unspecified) |
| 92 to 93 | CCCCCCCCCCCCCCCCCCCCCCOC(=O)P(=O)(O)O |
| 72 | CCOC(=O)CCNCC(O)COc1cccc(OC)c1 (stereo unspecified) |
| 154 to 156 | COc1ccc(N2CCN(c3c(C)c(C)c4c(c3C)CC(C)(C)O4)CC2)c(OC)c1 |
| 304 to 306 | O=C1c2ccccc2-c2c1c(Cl)nc1ccc(Br)cc21 |
| 99 to 100 | COc1cc(CCCO)ccc1OCc1nc(-c2ccco2)oc1C |
| 211 to 213 | Cc1ccccc1CC1CCN(C(=O)C(=O)Nc2ccc3c(c2)CC(=O)N3)CC1 |
| 209 to 211 | CCOc1nc2nc(SC)nn2c2c1cnc1c2cnn1CC |
| 263 | CC1(C)OC(=C(C#N)C#N)C(C#N)=C1c1ccc(F)cc1 |
| 196 to 198 | CCOc1cc2ncc(C#N)c(Nc3ccc(F)c(Cl)c3)c2cc1NC(=O)C=CCN(C)C |
